Experimental data taken from ChEMBL document CHEMBL6078612, “Novel strategies based on natural products and synthetic derivatives to overcome resistance in Mycobacterium tuberculosis” (Eur J Med Chem, 2024).
In brackets after ≈: the same amount, converted by molar mass.

What was measured:
[1] = test system: Mycobacterium tuberculosis; assay: Antitubercular activity against XDR Mycobacterium tuberculosis; type: functional
[2] = Inhibition of Mycobacterium tuberculosis isocitrate lyase
[3] = test system: Mycobacterium tuberculosis; assay: Antimycobacterial activity against Mycobacterium tuberculosis H37Rv assessed as reduction in bacterial cell growth by resazurin reduction method; type: functional

**Q.** With `CC(=O)NC[C@H]1CN(c2ccc(N3CCOCC3)c(F)c2)C(=O)O1` [LINEZOLID] as the compound, how does the MIC [1] read?
**A.** 0.125 µg/mL (≈ 0.371 µM)

**Q.** For `O=c1c(O)c(-c2ccc(O)c(O)c2)oc2cc(O)cc(O)c12` [QUERCETIN], which IC50 [2] is on record?
**A.** 3.57 µM

**Q.** What does the source list for H-GWLDVAKKIGKAAFNVAKNFI-OH?
**A.** MIC [1]: < 0.97 µg/mL; MIC [3]: < 0.98 µg/mL
